“Also recorded” adds a separate entry of the source.
What was measured:
[1] = system: naïve CD4+ T cells / CD4+CD25+Foxp3+ iTregs; test: iTreg induction from naive CD4+ T cells in the absence or presence of iRGD or iRGE; type: cell-based, mouse
Procedure: Naïve CD4^+ T cells and nTregs were isolated from the spleen of healthy C57B6129SF1/J mice by magnetic separation using a mouse CD4+ T cell isolation kit and PE-conjugated anti-mouse CD25 with anti-PE magnetic separation micro beads (Miltenyi Biotec™). The isolated T cells were stimulated with anti-CD3/CD28 beads (×25 dilution; Miltenyi Biotec™) in the presence or absence of recombinant mouse TGF-β1 (5 ng/ml; Bio-Techne™ Corporation) for 3 days. iRGD (100 μM) or iRGE (100 μM) peptide was added to the cultures in some experiments. To study the effect of TGF-β1 on the induction of αvβ5 integrin+ iTregs, naïve CD4+ T cells were cultured with anti-CD3/CD28 beads (x 25 dilution) and TGF-β1 (5 ng/ml) in the presence or absence of varying concentrations of a TGF-βR1 inhibitor (LY2157299; Selleck™ Chemicals LLC). To study the effect of TCR stimulation on the induction of αvβ5 integrin+ iTregs, naïve CD4+ T cells treated with varying concentrations of plate-coated anti-mouse CD3 Ab (eBioscience™) in the presence of soluble anti-mouse CD28 Ab (2 μg/ml) (eBioscience™) and TGF-β1 (5 ng/ml). The cells were subjected to flow cytometry as described elsewhere.
For the data presented in FIG. 31, FIG. 32A, and FIG. 32B, naïve CD4+ T cells were stimulated with anti-CD3/CD28 Abs and TGF-β1 in the absence or presence of iRGD or iRGE. Flow cytometry was performed to quantify the proportion of CD4+CD25+Foxp3+ iTregs (see FIG. 31) and αvβ5 integrin+ cells among the iTregs (See FIG. 32A). Apoptosis of αvβ5 integrin+ iTregs was quantitated by measuring cleaved caspase 3 using flow cytometry (see FIG. 32B; n=3).
To investigate whether iRGD Reduces CD4+CD25+Foxp3+ iTregs in an RGD-Dependent Manner in Vitro, naïve CD4+ T cells were stimulated with anti-CD3/CD28 Abs and TGF-β1 in the absence or presence of the iRGD or iRGE peptide. The resulting cells were subjected to flow cytometry to analyze the expression of CD25 and Foxp3 in the CD4+ T cells (FIG. 33A) and the expression of the αvβ5 integrin and NRP-1 on CD4+CD25+Foxp3+ iTregs (FIG. 33B). The bar diagram in (FIG. 33C) summarizes the proportion of NRP-1+ cells among the iTregs. The statistical analysis used was the one-way ANOVA; p=0.8221. n=3 per group.
The proportion of apoptotic αvβ5 integrin+ iTregs (FIG. 34) and CD4+Foxp3neg T cells (FIG. 35) was quantitated by measuring cleaved caspase 3 using flow cytometry. The statistical analysis used was Welch's t test; p=0.0705 (n=3). The dot plots and histograms of FIG. 33C and FIG. 35 show representative data from the 3 independent experiments. The error bars indicate the mean±standard error; N.S., not significant.

[2] = system: primary PDAC tumors of transgenic KPC mice; test: Long-term treatment of transgenic KPC mice; IHC/IF of primary PDAC tumors; type: in vivo, mouse; details: per high-power field
Procedure: Long-term treatment studies using combinations of iRGD, Gem, and Nab-P in transgenic KPC mice and subsequent immunohistochemistry (IHC) were performed as previously reported.
For the data presented in FIG. 1, primary PDAC tumors were collected from transgenic KPC mice that received long-term treatment with Gem, iRGD, or iRGD+Gem as part of a previously published survival study. The primary PDAC tumors were immunohistochemically analyzed for the presence of CD8+ T cells.
Primary PDAC tumors were collected from transgenic KPC mice that received long-term treatment with or without Gem, iRGD, or iRGD+Gem as part of a previously published survival study. The presence of Foxp3+ Tregs in the primary PDAC tumors was analyzed by immunofluorescence.

[3] = system: Tregs that were expanded in the presence of PDAC cells; test: FAM-iRGD binding to Tregs expanded with PDAC cells (flow cytometry); set-up: species or system mouse; details: flow cytometry MFI
Procedure: The isolated immune cells were subjected to flow cytometry for quality check and to analyze the cell populations of interest. […] The binding was analyzed by flow cytometry.
CD4+ T cells were magnetically isolated from the spleens of healthy C57B6129SF1/J mice using a mouse CD4+ T cell isolation kit (Miltenyi Biotec™). The CD4+ T cells were cultured for 3 days with or without KPC-derived PDAC cells in the presence of low dose anti-CD3/CD28 beads (×40 dilution; Miltenyi Biotec™), TGF-β1 (5 ng/ml; Bio-Techne Corporation™), and recombinant mouse interleukin-2 (mIL-2, 100 U/ml; Roche™), and subjected to flow cytometry as described elsewhere. In some cases, 1.0 mM iRGD was added to the culture in binding buffer supplemented with mIL-2 to study the effect on apoptosis. The cells were then stained with FITC-conjugated annexin V (BioLegend™) and 7-AAD (BioLegend™) for 15 minutes at room temperature to detect apoptotic cells by flow cytometry.
For the data presented in FIG. 16 through FIG. 19, CD4+ T cells isolated from the spleen of healthy C57B6129SF1/J hybrid mice were expanded for 3 days in vitro in the presence of KPC-derived PDAC cells. Flow cytometry was performed for subsequent analyses. […] The bar diagram summarizes the median fluorescence intensity (MFI) from 4 independent experiments. […] Apoptosis was quantitated by measuring annexin V and 7-AAD double positive cells by flow cytometry (n=3).

[4] = peptide 100 μM, anti-CD3/CD28 Abs and TGF-β1

For CRGDKGPDC [iRGD], which “apoptosis of CD4+Foxp3neg T cells (cleaved caspase 3)” value ([1]; flow cytometry) is on record?
The value was “Neither iRGD nor iRGE increased the apoptosis”.

And the “apoptosis of αvβ5 integrin+ Tregs (cleaved caspase 3)” value ([1]; flow cytometry)?
The value was “induces apoptosis of αvβ5 integrin^+ Tregs in an RGD-dependent manner; also recorded: increased apoptosis”.

And the “proportion of NRP-1-positive iTregs” value ([1]; peptide 100 μM)?
The value was “did not alter the proportion”.

And the “proportion of CD4+CD25+Foxp3+ iTregs” value [1, 4]?
Its value is “reduction”.

And the “αvβ5 integrin-positive population among the iTregs” value [1, 4]?
Its value is “reduction”.

What about the “number of CD8+ T cells in the PDAC tissue” value ([2]; IHC, long-term treatment) of the same sequence?
The value was “increased the number of CD8+ T cells”.

What about the “PDAC-resident cells expressing Foxp3 (Foxp3+ Tregs)” value ([2]; immunofluorescence, compared to the other arms) of the same sequence?
The value was “less PDAC-resident cells expressing Foxp3”.

What about the “binding to αvβ5 integrin+ Tregs induced in the presence of PDAC cells” value [3] of the same sequence?
Its value is “Binds”.

— patent US20260069694A1, “IDENTIFICATION OF HIGHLY IMMUNOSUPRESIVE TREG POPULATION IN TUMOR MICROENVIRONMENTS” (THE TRUSTEES OF COLUMBIA UNIVERSITY IN THE CITY OF NEW YORK, priority 2023, published 2026)
